Results from patent US20120328526A1, “Modulation of Nad+ Activity in Neuropathophysiological Conditions and Uses Thereof” (University of Maryland, Baltimore, priority 2011, published 2012).
Entries after “also recorded” stand apart in the source; their conditions may differ.

What was measured:
[1] = tested on: neurons in the CA1 sector of the hippocampus; assay: Forebrain ischemia model, histological outcome in the CA1 sector of the hippocampus; assay type: in vivo, mouse
Experimental: FIGS. 1A-1B show effects of nicotinamide mononucleotide administration. FIG. 1A: Fluoro-Jade B staining of the hippocampal formation of mouse brain subjected to 10 min forebrain ischemia and 5 days of recovery. The middle panels represent enlarged views of the CA1 sector, the CA2-3 border, and DG. Note the high number of degenerating, Fluoro-Jade B positive cells in the CA1 pyramidal cell layer. There are only a few cells stained in the CA3 region, and some cells are stained in the DG. […] Open bars represent average values.
In all groups male, 3 months old animals were used.
C57BL/6 male mice, weighing 20-25 g were used. Mice were fasted overnight with free access to water ad libitum. Animals were anesthetized with 3.5% isoflurane in 70% N2O and 30% O2 and the trachea were intubated with a 20-guage intravenous catheter. Anesthesia was maintained using 1.5% isoflurane in N2O:O2 (70:30) and the lungs were mechanically ventilated at a rate of 120 breaths per min and the tidal volume was adjusted to give normal physiological values of blood gases (34-38 mm Hg pCO2 and […] of pO2). The common carotid arteries was isolated via a neck incision and encircled with loose ligatures for later clamping. Rectal temperature was routinely monitored before, during and after ischemia. A subcutaneous needle thermistor was placed adjacent to the skull. The body and head temperature was maintained at 37.0±0.5° C. by a homeothermic-heating pad and heating lamp.
Two minutes before the common carotid arteries are clamped, the isoflurane concentration will be increased to 5%. […]
Every sixth […] section located between 1.7 and 2.6 mm posterior to bregma (0 mm, 180 mm, 360 mm, 540 mm, 720 mm, 900 mm; 6 sections), which comprises the dorsal hippocampus, was stained with IBA1 antiserum and cresyl violet and used for estimating the total microglial number with distinct morphology and neuronal numbers of normal and dying neurons in the different hippocampal regions. […] Parallel sections were immuno-stained with GFAP antibody and the number of distinct astrocytes were counted in the same hippocampal area. GFAP-immunoreactive cells were classified into three categories: normal, moderate, and intensely activated astrocytes, based on morphological characteristics as assessed by visual inspection (23).
Quantitative analysis is performed on a computer-assisted image analysis system consisting of a Nikon Eclipse 800 photomicroscope equipped with a computer-controlled motorized stage, and a computer running Stereolnvestigator program, a custom-designed morphology and stereology software (27). Cell numbers were quantified according to the optical fractionator method. […]
For quantification of uninjured cells within the CA1 sector of the hippocampus an unbiased stereological technique was used (27). […]

[2] = Core temperature and blood pressure after nicotinamide mononucleotide administration in post-ischemic animals; assay type: in vivo, mouse
Description: For quantification of uninjured cells within the CA1 sector of the hippocampus an unbiased stereological technique was used (27). […] This is in accord with the degree of hippocampal injury reported in other models of mouse forebrain ischemia. There were no seizure incidents during the first hours of recovery however there was about 10% mortality in the 5 days recovery group. […] To exclude the possibility that the protection was due to hypothermia, the treated animals' core temperature was monitored for 1 h after the nicotinamide mononucleotide administration. The body temperature was stable at 37.5° C. Similarly there was no effect of nicotinamide mononucleotide administration on the animals' blood pressure that was maintained between 80 and 100 mmHg after the compound injection.

Question: For `NC(=O)c1ccc[n+]([C@@H]2O[C@H](COP(=O)([O-])O)[C@@H](O)[C@H]2O)c1` [nicotinamide mononucleotide], which “ischemic cell death / brain damage in the CA1 sector of the hippocampus” value ([1]; 10 min forebrain ischemia, NMN 500 mg/kg at 1 hour of reperfusion, 5 days of recovery) is on record?
Answer: almost completely ameliorated; also recorded: markedly ameliorates ischemic brain damage; also recorded: almost completely eliminate the ischemic brain damage; also recorded: dramatic amelioration of cell death; also recorded: significant protection

Question: What about the “ischemic cell death / brain damage in the CA1 sector of the hippocampus” value ([1]; 10 min forebrain ischemia, NMN 500 mg/kg at 1 hour of reperfusion, 5 days of recovery, listed as NMN) of the same compound?
Answer: Dramatic reduction of ischemia-induced brain damage

Question: What about the “animals that did not show any injured neurons” value ([1]; 10 min forebrain ischemia, NMN 500 mg/kg at 1 hour of reperfusion, 5 days of recovery, n=6) of the same compound?
Answer: Five of 6

Question: And the “percentage of uninjured neurons in the CA1 sector vs vehicle-treated wild type mice” value ([1]; 10 min global cerebral ischemia, NMN 1000 mg/kg IP at start of reperfusion, 6 days of recovery)?
Answer: significantly greater

Question: And the “effect on animals' blood pressure” value ([2]; after the compound injection (500 mg/kg))?
Answer: no effect

Question: And the “body (core) temperature after administration” value ([2]; monitored for 1 h after NMN administration (500 mg/kg))?
Answer: 37.5 °C
